Data from ChEMBL document CHEMBL1138241, “First gallamine-tacrine hybrid: design and characterization at cholinesterases and the M2 muscarinic receptor” (J Med Chem, 2007).

Legend:
Acetylcholinesterase [1] = molecular target: Acetylcholinesterase (Torpedo californica, UniProt P04058)
Description: Inhibition of Torpedo californica Acetylcholinesterase

[2] = molecular target: T1, Muscarinic acetylcholine receptor M2 (Sus scrofa, UniProt P06199)
T1 sequence (P06199 whole entry): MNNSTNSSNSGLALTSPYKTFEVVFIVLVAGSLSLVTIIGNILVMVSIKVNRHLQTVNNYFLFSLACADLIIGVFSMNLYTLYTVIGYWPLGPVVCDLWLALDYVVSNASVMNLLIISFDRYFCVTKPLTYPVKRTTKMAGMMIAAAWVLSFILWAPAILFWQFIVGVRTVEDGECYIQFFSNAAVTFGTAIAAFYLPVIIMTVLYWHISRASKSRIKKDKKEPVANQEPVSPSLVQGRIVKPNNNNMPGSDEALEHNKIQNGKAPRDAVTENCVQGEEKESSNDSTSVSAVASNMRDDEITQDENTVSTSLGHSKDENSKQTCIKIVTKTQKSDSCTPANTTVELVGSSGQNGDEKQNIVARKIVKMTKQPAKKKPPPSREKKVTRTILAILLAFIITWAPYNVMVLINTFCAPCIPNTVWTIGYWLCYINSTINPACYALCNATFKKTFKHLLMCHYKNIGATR
Description: Inhibition of [3H]NMS dissociation from porcine muscarinic M2 receptor

Acetylcholinesterase [3] = molecular target: Acetylcholinesterase (Homo sapiens, UniProt P22303)
Sequence of Acetylcholinesterase (Homo sapiens, UniProt P22303) (P22303 whole entry): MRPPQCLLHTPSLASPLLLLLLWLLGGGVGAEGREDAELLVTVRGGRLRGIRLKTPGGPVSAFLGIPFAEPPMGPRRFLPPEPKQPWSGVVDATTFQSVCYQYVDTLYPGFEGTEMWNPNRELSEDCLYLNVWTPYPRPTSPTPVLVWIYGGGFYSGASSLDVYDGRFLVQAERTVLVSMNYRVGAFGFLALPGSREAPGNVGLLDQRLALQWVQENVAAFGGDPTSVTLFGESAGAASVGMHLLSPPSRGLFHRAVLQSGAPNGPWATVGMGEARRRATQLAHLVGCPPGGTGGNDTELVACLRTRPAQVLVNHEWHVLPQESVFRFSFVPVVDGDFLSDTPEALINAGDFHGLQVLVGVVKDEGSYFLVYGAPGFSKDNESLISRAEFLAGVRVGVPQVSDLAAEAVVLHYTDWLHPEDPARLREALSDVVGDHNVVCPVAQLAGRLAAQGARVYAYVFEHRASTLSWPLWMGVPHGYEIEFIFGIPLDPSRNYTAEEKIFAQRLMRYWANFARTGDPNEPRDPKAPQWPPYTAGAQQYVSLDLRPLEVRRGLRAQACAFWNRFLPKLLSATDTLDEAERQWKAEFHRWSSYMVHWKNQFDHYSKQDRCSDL
Description: Inhibition of human Acetylcholinesterase

Acetylcholinesterase [4] = molecular target: Acetylcholinesterase (Electrophorus electricus, UniProt O42275)
Sequence of Acetylcholinesterase (Electrophorus electricus, UniProt O42275) (O42275 whole entry): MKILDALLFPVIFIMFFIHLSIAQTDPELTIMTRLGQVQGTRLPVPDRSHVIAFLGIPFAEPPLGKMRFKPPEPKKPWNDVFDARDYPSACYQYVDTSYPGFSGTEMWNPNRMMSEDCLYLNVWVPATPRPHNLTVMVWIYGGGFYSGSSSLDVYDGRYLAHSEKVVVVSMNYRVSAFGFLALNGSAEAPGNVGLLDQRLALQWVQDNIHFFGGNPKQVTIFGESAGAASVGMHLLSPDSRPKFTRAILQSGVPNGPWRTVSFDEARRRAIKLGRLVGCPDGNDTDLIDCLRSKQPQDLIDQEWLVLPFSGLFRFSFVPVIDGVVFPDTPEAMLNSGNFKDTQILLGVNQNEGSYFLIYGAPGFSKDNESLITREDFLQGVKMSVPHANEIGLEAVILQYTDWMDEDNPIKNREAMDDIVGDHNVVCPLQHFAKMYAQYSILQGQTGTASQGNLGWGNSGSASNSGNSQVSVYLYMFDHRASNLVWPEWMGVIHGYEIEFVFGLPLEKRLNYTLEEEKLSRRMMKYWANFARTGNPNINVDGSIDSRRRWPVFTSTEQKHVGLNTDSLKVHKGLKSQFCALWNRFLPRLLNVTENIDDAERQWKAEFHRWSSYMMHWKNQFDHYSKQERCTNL
Description: Inhibition of Electrophorus electricus Acetylcholinesterase

Sequence of Acetylcholinesterase (Torpedo californica, UniProt P04058) (P04058 whole entry): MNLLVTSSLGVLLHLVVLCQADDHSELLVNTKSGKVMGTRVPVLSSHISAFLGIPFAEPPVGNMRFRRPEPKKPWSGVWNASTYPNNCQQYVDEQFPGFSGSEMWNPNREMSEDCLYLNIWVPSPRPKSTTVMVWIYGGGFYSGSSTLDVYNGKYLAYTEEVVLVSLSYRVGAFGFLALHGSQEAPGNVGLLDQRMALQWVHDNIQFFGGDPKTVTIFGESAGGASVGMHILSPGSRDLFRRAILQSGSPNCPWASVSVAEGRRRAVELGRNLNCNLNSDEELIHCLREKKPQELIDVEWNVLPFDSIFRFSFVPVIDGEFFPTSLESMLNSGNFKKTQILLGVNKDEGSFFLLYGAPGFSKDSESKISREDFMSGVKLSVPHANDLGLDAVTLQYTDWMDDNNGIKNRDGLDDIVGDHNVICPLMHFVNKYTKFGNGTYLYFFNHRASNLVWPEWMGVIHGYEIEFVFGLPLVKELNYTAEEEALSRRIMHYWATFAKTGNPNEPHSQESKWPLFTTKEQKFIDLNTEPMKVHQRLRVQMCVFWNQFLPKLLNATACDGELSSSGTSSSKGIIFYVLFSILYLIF

| Compound | IC50 (Acetylcholinesterase [1]) [µM] | EC50 [2] [µM] | IC50 (Acetylcholinesterase [3]) [µM] | IC50 (Acetylcholinesterase [4]) [µM] |
| --- | --- | --- | --- | --- |
| CC[N+](CC)(CC)CCOc1cc(OCC[N+](CC)(CC)CC)c(C(=O)NCCCCCC(=O)NNc2c3c(nc4ccccc24)CCCC3)cc1OCC[N+](CC)(CC)CC | 0.0277 | 0.0014 |  |  |
| CC[N+](CC)(CC)CCOc1ccc(C(=O)NCCCCCC(=O)NNc2c3c(nc4ccccc24)CCCC3)cc1 | 0.0176 | 0.0013 | 0.00761 | 0.000467 |
| CC[N+](CC)(CC)CCOc1cc(OCC[N+](CC)(CC)CC)cc(C(=O)NCCCCCC(=O)NNc2c3c(nc4ccccc24)CCCC3)c1 | 0.00859 | 0.0009 | 0.0158 | 0.00128 |
| CC[N+](CC)(CC)CCOc1ccc(C(=O)NCCCCCC(=O)NNc2c3c(nc4cc(Cl)ccc24)CCCC3)cc1 | 0.127 | 0.005 | 0.00544 | 0.026 |
| CC[N+](CC)(CC)CCOc1cc(OCC[N+](CC)(CC)CC)cc(C(=O)NCCCCCC(=O)NNc2c3c(nc4cc(Cl)ccc24)CCCC3)c1 | 0.301 | 0.0015 | 0.00675 | 0.048 |
| CC[N+](CC)(CC)CCOc1cc(OCC[N+](CC)(CC)CC)c(C(=O)NCCCCCC(=O)NNc2c3c(nc4cc(Cl)ccc24)CCCC3)cc1OCC[N+](CC)(CC)CC | 0.334 | 0.001 | 0.00654 | 0.09 |
| CC[N+](CC)(CC)CCOc1cccc(OCC[N+](CC)(CC)CC)c1OCC[N+](CC)(CC)CC [GALLAMINE] |  | 0.13 | 2110 | 3150 |
